Data as given in ChEMBL document CHEMBL1145376, “C-8 Modifications of 3-alkyl-1,8-dibenzylxanthines as inhibitors of human cytosolic phosphoenolpyruvate carboxykinase” (Bioorg Med Chem Lett, 2007).

Columns and labels:
[1] = target: T1, Phosphoenolpyruvate carboxykinase, cytosolic [GTP] (Rattus norvegicus, UniProt P07379); assay: Inhibition of cPEPCK in rat H4IIE cells assessed as effect on glucose production; type: cell-based
T1 sequence (P07379 whole entry): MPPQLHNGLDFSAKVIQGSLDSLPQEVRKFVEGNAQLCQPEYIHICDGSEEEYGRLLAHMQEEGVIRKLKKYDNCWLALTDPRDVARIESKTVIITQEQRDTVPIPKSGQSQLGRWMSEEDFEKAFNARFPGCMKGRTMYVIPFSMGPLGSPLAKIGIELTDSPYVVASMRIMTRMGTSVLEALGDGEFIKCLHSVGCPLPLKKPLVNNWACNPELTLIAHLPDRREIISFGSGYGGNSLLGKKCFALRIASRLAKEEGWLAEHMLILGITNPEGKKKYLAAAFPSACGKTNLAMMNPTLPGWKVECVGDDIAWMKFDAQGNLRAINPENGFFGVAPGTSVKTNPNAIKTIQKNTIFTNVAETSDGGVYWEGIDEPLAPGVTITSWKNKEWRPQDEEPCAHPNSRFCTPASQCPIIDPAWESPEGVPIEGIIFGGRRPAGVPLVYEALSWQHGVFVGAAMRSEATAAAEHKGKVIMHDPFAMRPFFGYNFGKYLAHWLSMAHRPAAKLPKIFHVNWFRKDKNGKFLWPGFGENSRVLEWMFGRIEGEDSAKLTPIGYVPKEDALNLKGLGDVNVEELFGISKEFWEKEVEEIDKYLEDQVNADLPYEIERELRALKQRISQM

[2] = target: T2, Phosphoenolpyruvate carboxykinase, cytosolic [GTP] (Homo sapiens, UniProt P35558); assay: Inhibition of human cPEPCK
T2 sequence (P35558 whole entry): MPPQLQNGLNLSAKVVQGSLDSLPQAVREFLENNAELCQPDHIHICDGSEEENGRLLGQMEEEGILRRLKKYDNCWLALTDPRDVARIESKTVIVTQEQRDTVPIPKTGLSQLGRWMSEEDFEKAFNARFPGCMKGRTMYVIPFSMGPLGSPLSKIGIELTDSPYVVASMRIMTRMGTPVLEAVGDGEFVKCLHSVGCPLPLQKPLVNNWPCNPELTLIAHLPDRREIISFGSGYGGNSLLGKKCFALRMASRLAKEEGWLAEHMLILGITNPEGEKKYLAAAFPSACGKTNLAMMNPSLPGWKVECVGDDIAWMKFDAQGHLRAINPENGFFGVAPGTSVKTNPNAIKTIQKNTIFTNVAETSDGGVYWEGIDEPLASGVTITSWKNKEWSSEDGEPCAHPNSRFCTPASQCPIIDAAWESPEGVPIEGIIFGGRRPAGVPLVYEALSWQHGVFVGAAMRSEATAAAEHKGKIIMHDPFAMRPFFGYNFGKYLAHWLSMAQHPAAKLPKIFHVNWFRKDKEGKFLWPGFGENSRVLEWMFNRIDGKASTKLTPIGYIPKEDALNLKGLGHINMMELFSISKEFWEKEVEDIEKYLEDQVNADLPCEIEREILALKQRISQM

[3] = target: T3, Phosphoenolpyruvate carboxykinase, cytosolic [GTP] (Homo sapiens) (UniProt P35558); assay: Inhibition of human cPEPCK at 1 uM
T3 sequence (whole entry): T2 sequence (P35558 whole entry)

| EC50 [1] [µM] | IC50 [2] [µM] | inhibition [3] [%] | SMILES |
| --- | --- | --- | --- |
| 5.5 | – | – | O=c1c2[nH]c(Cc3ccc(NS(=O)(=O)c4cccnc4)cc3)nc2n(CC2CC2)c(=O)n1Cc1ccccc1F |
| – | 5.65 | – | CCCCn1c(=O)n(Cc2ccccc2F)c(=O)c2[nH]c(Cc3ccc(N)cc3N)nc21 |
| 8.75 | – | – | Cn1cc(S(=O)(=O)Nc2ccc(Cc3nc4c([nH]3)c(=O)n(Cc3ccccc3F)c(=O)n4CC3CC3)cc2)cn1 |
| 3.97 | 0.54 | – | CCCCn1c(=O)n(Cc2ccccc2F)c(=O)c2[nH]c(Cc3ccc(NS(=O)(=O)c4c(C)nn(C)c4Cl)cc3)nc21 |
| 8.6 | 2.11 | – | CCCCn1c(=O)n(Cc2ccccc2F)c(=O)c2[nH]c(Cc3ccc(NC(C)=O)cc3)nc21 |
| – | 8.7 | – | CCCCn1c(=O)n(Cc2ccccc2F)c(=O)c2[nH]c(Cc3ccc(NC(C)=O)cc3NC(C)=O)nc21 |
| 2.17 | – | – | Cc1nn(C)c(Cl)c1S(=O)(=O)Nc1ccc(Cc2nc3c([nH]2)c(=O)n(Cc2ccccc2F)c(=O)n3CC2CC2)cc1 |
| – | 2.56 | – | CCCCn1c(=O)n(Cc2ccccc2F)c(=O)c2[nH]c(Cc3ccc(N)cc3)nc21 |
| – | 2.3 | – | CCCCn1c(=O)n(Cc2ccccc2F)c(=O)c2[nH]c(Cc3ccc(NC(=O)C(F)(F)F)cc3)nc21 |
| 3.4 | – | – | Cc1noc(C)c1S(=O)(=O)Nc1ccc(Cc2nc3c([nH]2)c(=O)n(Cc2ccccc2F)c(=O)n3CC2CC2)cc1 |
| 8.2 | – | – | Cc1nc(N)sc1S(=O)(=O)Nc1ccc(Cc2nc3c([nH]2)c(=O)n(Cc2ccccc2F)c(=O)n3CC2CC2)cc1 |
| – | 1.8 | – | O=C(Nc1ccc(Cc2nc3c([nH]2)c(=O)n(Cc2ccccc2F)c(=O)n3CC2CC2)cc1)C(F)(F)F |
| – | – | 31 | CCCCn1c(=O)n(Cc2ccccc2F)c(=O)c2[nH]c(Cc3ccc(NS(=O)(=O)Cc4ccccc4)cc3)nc21 |
| – | 2.07 | – | CN(C)CC(=O)Nc1ccc(Cc2nc3c([nH]2)c(=O)n(Cc2ccccc2F)c(=O)n3CC2CC2)cc1 |
| – | – | 30 | CCCCn1c(=O)n(Cc2ccccc2F)c(=O)c2[nH]c(Cc3ccc(NS(=O)(=O)c4cccs4)cc3)nc21 |
| 5.57 | 0.24 | – | Cc1nn(C)cc1S(=O)(=O)Nc1ccc(Cc2nc3c([nH]2)c(=O)n(Cc2ccccc2F)c(=O)n3CC2CC2)cc1 |
| – | 1.56 | – | Nc1ccc(Cc2nc3c([nH]2)c(=O)n(Cc2ccccc2F)c(=O)n3CC2CC2)cc1 |
| – | – | 19 | CCCCn1c(=O)n(Cc2ccccc2F)c(=O)c2[nH]c(Cc3ccc(NS(=O)(=O)c4ccsc4C(=O)OC)cc3)nc21 |
| – | – | 22 | CCCCn1c(=O)n(Cc2ccccc2F)c(=O)c2[nH]c(Cc3ccc(NS(=O)(=O)c4ccccc4)cc3)nc21 |
| 4.7 | 0.69 | – | CC(=O)Nc1ccc(Cc2nc3c([nH]2)c(=O)n(Cc2ccccc2F)c(=O)n3CC2CC2)cc1 |
